Data on one compound can be found in patent US8741964B2, “Uses of nonenal” (Industry-Academic Cooperation Foundation, Yonsei University, priority 2011, dated 2014).

Data set [1] deals with C57BL/6J mice. Description: Body weight, food intake and visceral fat-pad weights of mice fed test diets for 10 weeks. The class given is in vivo. An excerpt:
(§1) The obesity-inducing control diet used in the test was high-fat diet (HFD: 40% fat calorie, 17 g lard+3% corn oil/100 g diet). Diets supplemented with nonenal (nonenal-supplemented high fat diet, NED) had the same composition as HFD, except that nonenal was included at 0.2% (see Table 1). The normal diet group (Chow) was fed with commercially available rodent chow. Nonenal was purchased from Sigma-Aldrich.
(§2) 5-week-old male C57BL/6J mice (Orient, Korea) were accustomed to the laboratory environment for 1 week while feeding solid feed. Then, they were randomly divided into normal diet, high-fat diet and test groups and bred for a total of 10 weeks. The diet was given between 10 and 11 a.m. every day together with water. Food intake was measured every day and body weight was measured once a week. In order to avoid transient body weight increase after feed intake, body weight was measured 2 hours after removing the feed. After fasting the test animal for at least 12 hours and anesthetizing with diethyl ether, blood, liver and visceral fat (epididymal fat, perirenal fat, mesenteric fat and retroperitoneal fat) were taken and weighed after washing with 0.1 M PBS (pH 7.4). Blood taken from the abdominal aorta was centrifuged at 1000×g for 15 minutes for the separation of plasma.

The subject of data set [2] is C57BL/6J mice. Description: Biochemical analysis of blood (plasma lipids, glucose, ALT, AST) of mice fed test diets. It is filed as in vivo. To be noted: 10 weeks.
From the text: as §1, §2
After 10 weeks of breeding, total cholesterol, triglyceride and glucose levels in the plasma and lipid levels in the liver tissue were measured as follows. Total cholesterol, triglyceride, free fatty acid and glucose levels in the plasma were measured twice for each using a commercially available kit (Bio Clinical System). The activity of ALT (alanine aminotransferase) and AST (aspartate aminotransferase) used as liver function indicator were measured twice for each using a commercially available kit (Bio Clinical System, Korea).

The test system of data set [3] is C57BL/6J mice. The data set can be described thus: Analysis of lipid level in liver tissues of mice fed test diets. It is filed as in vivo. The settings on record: 0.2% nonenal in high-fat diet, 10 weeks, as compared to HFD.
From the text: as §1, §2
Lipids were extracted from the liver tissue according to Folch et al.'s method Folch J et al., J Biol. Chem. 226: 497-509 (1957)). After adding 1 mL of distilled water to 0.25 g of liver tissue, the liver tissue was homogenized using a Polytron homogenizer (IKA-Werke GmbH & Co., Ultra-Turrax, Staufen, Germany). After adding 5 mL of chloroform:methanol solution (2:1, v/v) to the homogenate and mixing well, the mixture was centrifuged at 1000×g for 10 minutes. After adding 2 mL of chloroform:methanol solution (2:1, v/v) again to the supernatant, the same procedure was repeated to completely separate the lipid components of the liver. […] The dried lipids were dissolved in 1 mL of methanol and then analyzed. […]

The test system of data set [4] is C/EBPα. The data set can be described thus: RT-PCR analysis of visceral fat tissues: C/EBPα gene expression. The class given is in vivo, mice. To be noted: nonenal supplemented to the HFD vs HFD; to levels similar for the Chow group.
From the text: as §1
(§3) 5-week-old male C57BL/6J mice (Orient, Korea) were accustomed to the laboratory environment for 1 week while feeding solid feed. Then, they were randomly divided into normal diet, high-fat diet and test groups and bred for a total of 10 weeks. The diet was given between 10 and 11 a.m. every day together with water. Food intake was measured every day and body weight was measured once a week. In order to avoid transient body weight increase after feed intake, body weight was measured 2 hours after removing the feed. […]
(§4) After adding 1 mL of Trizol agent per 0.1 g of visceral fat tissues, the mixture was homogenized and centrifuged at 12,000×g for 10 min at 4° C. […] The RNA sample concentration was measured at a wavelength of 260 nm and 280 nm using a UV/VIS spectrophotometer (Beckman coulter, DU730) and the integrity of RNA sample was verified by agarose gel electrophoresis. […]

Data set [5] has as its system PPARγ2. The data set can be described thus: RT-PCR analysis of visceral fat tissues: PPARγ2 gene expression. The settings on record: nonenal supplemented to the HFD vs HFD; to levels similar for the Chow group. The class given is in vivo, mice.
From the text: as §1, §3, §4

Data set [6] relates to aP2. Description: RT-PCR analysis of visceral fat tissues: aP2 gene expression. The settings on record: nonenal supplemented to the HFD vs HFD; to levels similar for the Chow group. It is filed as in vivo, mice.
From the text: as §1, §3, §4

Data set [7] has as its system TNF-α. Description: RT-PCR analysis of visceral fat tissues: TNF-α gene expression. To be noted: feeding nonenal in HFD vs HFD. It is filed as in vivo, mice.
From the text: as §1, §3, §4

Data set [8] deals with IL-6. Description: RT-PCR analysis of visceral fat tissues: IL-6 gene expression. The settings on record: feeding nonenal in HFD vs HFD. The class given is in vivo, mice.
From the text: as §1, §3, §4

Data set [9] deals with rats. To be noted: cited from earlier work.
In data set [10] the test system is microbial growth. To be noted: cited from earlier work.
Setting [11] is: 0.2% nonenal in high-fat diet, as compared to HFD.
Setting [12] is: 0.2% nonenal in high-fat diet, as compared to HFD group.

For `CCCCCC/C=C/C=O` [nonenal, trans-2-nonenal], the “decrease of body weight gain” value in data set [1] (0.2% nonenal in high-fat diet (NED), as compared to HFD) was 49%. Also, in data set [1] (setting [11]), the “weight of epididymal fat-pad” value was “significantly reduced”, the “weight of mesenteric fat-pad” value is “significantly reduced”, the “weight of perirenal fat-pad” value was “significantly reduced” and the “weight of retroperitoneal fat-pad” value is on record as “significantly reduced”. In addition, in data set [1] (NED group vs HFD group), the “reduction of total visceral fat weight” value came to 59%. Moreover, the “reduction of fasting blood sugar level” value in [2] (setting [11]) is given as 31%. Further, in [2] (setting [12]), the “lowering of plasma LDL+VLDL cholesterol level” value is 20%, the “lowering of plasma free fatty acid level” value was 41%, the “lowering of plasma total cholesterol level” value amounted to 19% and the “lowering of plasma triglyceride level” value came to 37%. In addition, in data set [2] (NED group vs HFD group), the “decrease of plasma activity of ALT” value worked out at 28% and the “decrease of plasma activity of AST” value is listed as 31%. Moreover, in [3], the “decrease of cholesterol level in liver tissue” value was found to be 75%, the “decrease of free fatty acid level in liver tissue” value was 74% and the “decrease of triglyceride level in liver tissue” value came out at 78%. Besides, the “expression of C/EBPα gene (mRNA) in visceral fat tissues” value in data set [4] is given as “significantly decreased”. Also, the “expression of PPARγ2 gene (mRNA) in visceral fat tissues” value in [5] was “significantly decreased”. In addition, the “expression of aP2 gene (mRNA) in visceral fat tissues” value in data set [6] is “significantly decreased”. In addition, in [7], the “HFD-induced elevation in the expression of TNF-α in visceral fat tissues” value is recorded as “significantly reversed”. In addition, in [8], the “HFD-induced elevation in the expression of IL-6 in visceral fat tissues” value is listed as “significantly reversed”. Further, the LD50 result in [9] is recorded as “more than 5,000 mg/kg”. In addition, the “microbial growth inhibitory effects” value in [10] is reported as “microbial growth inhibitory effects”.
